Read-outs that look alike come from different tables or passages of the source.
Columns and labels:
primary microglia = assay: Proteolytic degradation of Aβ by primary microglia; assay type: cell-based, murine; settings: for intracellular Aβ levels: 24 hours drug then 18 hours with 2 μg/mL soluble Aβ
Description: FIG. 5 illustrates graphs showing RXR agonists stimulate Aβ degradation.
Given the ability of RXR activation to drive LXR target gene expression, we predicted that agonist treatment should promote the proteolytic degradation of Aβ by microglia. […] Aβ uptake was unaffected by either drug treatment.

astrocytes = assay: RXR mediated intracellular Aβ degradation with PPARγ or LXR inhibitors, astrocytes; assay type: cell-based; settings: inhibitor pretreatment 1.5 hrs, Bexarotene 24 hours, 18 hours 2 ug/mL soluble Aβ
Description: (§1) FIG. 14 illustrates graphs showing RXR mediated intracellular Aβ degradation is prevented by inhibiting PPARγ or LXR.
(§2) To determine which heterodimer partners are involved in RXR activation driven Aβ intracellular degradation, we inhibited PPARγ and LXR by competitive inhibitors, TO and 22-s-Hydroxycholesterol, respectively. Aβ degradation mediated by either microglia (A) or astrocytes (B) is inhibited with either inhibitor to PPAR or LXR. Additionally, a co-treatment with both inhibitors reduces Aβ degradation further (FIG. 14).

microglia = assay: RXR mediated intracellular Aβ degradation with PPARγ or LXR inhibitors, microglia; assay type: cell-based; settings: inhibitor pretreatment 1.5 hrs, Bexarotene 24 hours, 18 hours 2 ug/mL soluble Aβ
Description: as §1, §2

[1] = tested on: LXR target genes (ABCA1, ABCG1, ApoE); assay: RXR activation drives LXR target gene expression in primary astrocytes (Western analysis); settings: primary murine astrocytes, increasing doses, 24 hours
Description: Cell lysates were subjected to Western analysis for ABCA1, ABCG1 and ApoE. Actin served as a load control.

[2] = tested on: ApoE knock out astrocytes; assay: Intracellular Aβ degradation in ApoE knock out astrocytes; assay type: cell-based, murine
[3] = humans, extended periods of use; cited from earlier work
[4] = tested on: LXR target genes (ABCA1, ABCG1, ApoE); settings: primary murine microglia, increasing doses, 24 hours
Description: Cell lysates were subjected to Western analysis for ABCA1, ABCG1, ApoE, and GAPDH as a loading control.

AD animal model = assay: Contextual fear conditioning in AD animal model; settings: 6 month old AD model mice, 100 mg/kg/day oral gavage, 7 days
Description: Wildtype littermates were used as a control and were orally gavaged with water for 7 days (n=5). Following treatment, animals underwent contextual fear conditioning. The number of times the animals froze over a two minute period was assessed after training.

ApoE = ApoE lipidation status in astrocyte conditioned media (native gel electrophoresis, Western); assay type: cell-based; settings: confluent primary murine astrocytes, increasing doses, 48 hours
Description: FIG. 4 illustrates an immunoassay showing ApoE lipidation status is increased after RXR agonist treatment. […] Conditioned media was subjected to native gel electrophoresis followed by Western analysis for ApoE.
Astrocyte conditioned media was collected and assessed by native gel electrophoresis. […]. (FIG. 4).

ApoE knock out microglia = assay: Intracellular Aβ degradation in ApoE knock out microglia; assay type: cell-based, murine
[5] = tested on: LXR target genes, ABCA1 and ABCG1; settings: murine model of mixed dyslipidemis; cited from earlier work
CD36 = assay: Expression of PPARγ target gene CD36 in primary astrocytes (qRT-PCR); settings: confluent primary murine astrocytes, 10 nM, time course
Description: Cell lysates were subjected to quantitative RT-PCR. GAPDH served as a control.

primary astrocytes = assay: Proteolytic degradation of Aβ by primary astrocytes; assay type: cell-based, murine
Description: FIG. 12 illustrates a graph showing RXR agonist stimulate Aβ degradation in astrocytes.
As shown above, astrocytes can drive the expression of LXR target genes after RXR activation, we predicted that agonist treatment should also promote the intracellular degradation of Aβ by astrocytes. […]. Aβ uptake was not affected by drug treatments (data not shown).

[6] = therapeutic doses, FDA alert issued on May 21, 2007; cited from earlier work

SMILES: CC1=C(/C=C/C(C)=C\C=C\C(C)=C\C(=O)O)C(C)(C)CCC1 [9cisRA]
- Aβ uptake (primary microglia): unaffected
- intracellular Aβ levels (primary microglia): dose-dependent reduction

SMILES: CC(C)CC[C@H](O)[C@@H](C)[C@H]1CC[C@H]2[C@@H]3CC=C4C[C@@H](O)CC[C@]4(C)[C@H]3CC[C@]12C [22-s-Hydroxycholesterol]
- Bexarotene-driven Aβ degradation in presence of inhibitor (astrocytes): inhibited
- Bexarotene-driven Aβ degradation in presence of inhibitor (microglia): inhibited

SMILES: C=C(c1ccc(C(=O)O)cc1)c1cc2c(cc1C)C(C)(C)CCC2(C)C [Bexarotene]
- expression of ABCA1, ABCG1, and ApoE [1]: drives the expression of ABCA1, ABCG1 and ApoE
- intracellular Aβ degradation ([2]; with exogenous 1 μg/mL ApoE): the effect of intracellular Aβ degradation returns
- intracellular Aβ degradation ([2]; without ApoE): no effect
- clinical safety profile [3]: good safety profile
- expression of ABCA1, ABCG1, and ApoE [4]: drives the expression of ABCA1, ABCG1, and ApoE
- contextual fear conditioning behavior (AD animal model): significantly improves behavior
- lipidation status of ApoE (ApoE): increases the lipidation status of ApoE
- intracellular Aβ degradation (ApoE knock out microglia; with exogenous 1 μg/mL ApoE): the effect of intracellular Aβ degradation returns
- intracellular Aβ degradation (ApoE knock out microglia; without ApoE): no effect
- expression of the LXR target genes, ABCA1 and ABCG1 [5]: induce the expression of the LXR target genes, ABCA1 and ABCG1
- CD36 expression by qRT-PCR (CD36): drives CD36, a PPARγ regulated gene, expression
- intracellular Aβ levels (primary astrocytes; 24 hours drug then 18 hours with 2 ug/mL soluble Aβ): dose dependent reduction
- Aβ uptake (primary astrocytes; data not shown): not affected
- Aβ uptake (primary microglia): unaffected
- intracellular Aβ levels (primary microglia): dose-dependent reduction

SMILES: CN(CCOc1ccc(CC2SC(=O)NC2=O)cc1)c1ccccn1 (centres unmarked) [rosiglitazone, 5-[4-[2-(N-methyl-N-(2-pyridyl)amino]ethoxy]benzyl]thiazolidine-2,4-dione]
- risk of heart attack [6]: significantly increased risk of heart attack
